The source of these data is patent US10487362B2, “Methods for diagnosing cancer based on small nucleolar RNA HBII-52” (Health Research, Inc., priority 2013, dated 2019).

In one series the test system is TRAMP-C2G cells. Briefly: Cell viability of TRAMP-C2G stable cell lines (Cell-Titer Fluor, 72 h growth assay). The series is classed as cell-based, mouse. The note with it: 72 h culture; for influence on the effect of MBII-52 or SB 242,084 on cell viability: TRAMP-C2G cells. The method, then:
FIG. 10. MBII-52 was stably overexpressed (>60-fold overexpression) in TRAMP-C2G cells from the pSilencer CMV 4.1 vector. Cell viability was measured (n=5, error bars are SEM) after 72 h culture using Cell-Titer Fluor cell viability assay and normalized to scramble-transfected, vehicle-treated control. One-sample t-tests were performed to compare experimental groups with scramble/vehicle control. Two-tailed t-tests were used to compare the two SB 242,084 treatment groups with each other. * indicated p<0.05 for either test. MBII-52 increases cell viability, while SB 242,084 inhibits it.
To test the hypothesis that HB/MBII-52 can activate 5-HT2cR and promote cancer progression stable cell lines were generated from TRAMP C2D and C2G cells that overexpress MBII-52 from pSilencer 4.1 CMV vector along with control cells expressing a scrambled RNA that has no homology to the mouse or human genome.
Numerous downstream pathways activated by 5-HT2cR have been studied in neuronal cell lines with a focus on neurological development and disease. The pathways relevant to this disclosure are Erk, PI3-K/Akt and RhoA (36,39). Each has previously been studied and targeted in PCa and other cancers. Activation of these pathways during PCa progression or in vitro can directly propagate a transition to malignancy. For example, Erk upregulates hypoxia inducible factor 1 alpha (HIF1α) and therefore vascular endothelial growth factor (Vegf) in response to hypoxia in rats (40). Vegf secretion also appears to be regulated by Erk in LNCaP cell lines (41). Erk is also able to transactivate the androgen receptor (AR) independent of androgen, by phosphorylating steroid receptor co-activator-1 (SRC-1), which then binds AR resulting in ligand-independent activation of AR. Therefore, Erk directly contributes to androgen-independence (41). […] Indeed, stable cell lines overexpressing MBII-52 appeared more proliferative then scramble control stable cell lines in a 72 h growth assay, after which viability was measured using Cell-Titer Fluor Assay (n=5) (FIG. 10).

Series [1] relates to Human Prostate cancer cell lines. Briefly: Cell viability of human prostate cancer cell lines treated for 72 h. Type of series: cell-based. The conditions noted are these: 72 h treatment, 3 independent experiments. The method, then: FIG. 11. Human Prostate cancer cell lines were treated with SB 242,084 for 72 h. […] Data is the average of 3 independent experiments with error bars indicating SEM.
(§1) Our tests indicate that SB 242,084 is growth-inhibitory in human PCa cell lines (FIG. 11).

Another series deals with PC3 cells. Briefly: Growth inhibition under serum starvation, PC3. Type of series: cell-based, human. The note with it: PC3, serum starvation vs serum.
Description: (§2) FIG. 12. […] Data is representative of multiple independent experiments.
as §1

Another series deals with LNCaP-C4-2 cells. Briefly: Growth inhibition under serum starvation, LNCaP-C4-2. The note with it: LNCaP-C4-2, serum starvation vs serum. The series is classed as cell-based, human.
Description: as §2, §1

The target in series [2] is T1, 5-HT2cR (Homo sapiens, UniProt P28335).
T1 sequence (P28335 33-458): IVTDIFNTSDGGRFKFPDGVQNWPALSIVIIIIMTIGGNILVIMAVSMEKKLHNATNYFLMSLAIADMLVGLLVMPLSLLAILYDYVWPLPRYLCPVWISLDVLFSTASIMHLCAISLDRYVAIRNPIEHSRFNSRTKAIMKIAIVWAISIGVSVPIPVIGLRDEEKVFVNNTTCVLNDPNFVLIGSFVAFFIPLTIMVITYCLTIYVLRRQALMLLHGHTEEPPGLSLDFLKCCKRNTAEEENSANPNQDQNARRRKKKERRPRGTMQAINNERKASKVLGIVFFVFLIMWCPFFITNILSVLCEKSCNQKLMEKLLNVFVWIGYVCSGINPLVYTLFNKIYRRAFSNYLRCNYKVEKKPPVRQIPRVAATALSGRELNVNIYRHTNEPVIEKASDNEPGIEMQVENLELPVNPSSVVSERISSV
The conditions noted are these: cited from earlier work.

The conditions of series [3]: compared with SB206,553; cited from earlier work.
The target of series [4] is T1, 5-HT2cR. The note with it: in vitro and in vivo; cited from earlier work.
A further series concerns Erk. The note with it: cited from earlier work.
Another series relates to DU145 clones DU6 and DU2. Briefly: Cell viability of DU145 HBII-52 clones in response to 5-HT. Type of series: cell-based, human. The note with it: high concentrations; HBII-52 overexpressing DU6 compared to low expressing DU2; 3 independent experiments. The source says: FIG. 17. Overexpression of HBII-52 affects cell viability in response to 5-HT treatment. […] Data are represented as the average+/−SEM of 3 independent experiments

The next series concerns MBII-52. The note with it: C2G cells, serum starvation 72 h, DHT supplementation. The source says:
Serum starvation induces NED of PCa cell lines (25). […] Furthermore, NED is associated with CR-PCa in vivo, supporting the importance of factors that induce NED as initiators of transition to androgen-independence (26).

Entries after “also recorded” stand apart in the source; their conditions may differ.

For the molecule `Cc1cc2c(cc1Cl)N(C(=O)Nc1ccc(Oc3cccnc3C)nc1)CC2` [SB 242,084], the cell viability result with TRAMP-C2G cells (scramble and MBII-52 overexpressing TRAMP-C2G cells, n=5) is “inhibits; also recorded: effective in both scramble and MBII-52 overexpressing cells”. For the same molecule, the “cell viability / growth inhibition” value in [1] is recorded as “dose-dependent decrease in cell viability levels; also recorded: growth-inhibitory”. In addition, in the series with PC3 cells, the “growth inhibition upon serum starvation” value is “significantly (p<0.05) further improved”. In addition, in the series with LNCaP-C4-2 cells, the “growth inhibition upon serum starvation” value is given as “significantly (p<0.05) further improved”. Moreover, at 5-HT2cR [2], the “potency relative to SB 206,553” value is recorded as “increased potency”, the “selectivity for 5-HT2cR over 5-HT2aR” value is reported as “greater than 100 fold” and the “selectivity for 5-HT2cR over 5-HT2bR” value was “greater than 100 fold”. For the same molecule, the “resistance to metabolic methylation” value in series [3] is listed as “more resistant to the metabolic methylation than SB206,553”. In addition, at 5-HT2cR [4], the antagonist activity entry is “potent antagonist activity”. In addition, in the series on Erk, the “activation of downstream targets including Erk” value is “inhibits activation”.

Regarding `NCCc1c[nH]c2ccc(O)cc12` [5-HT, serotonin], the “influence on the effect of MBII-52 or SB 242,084 on cell viability” value in the series on TRAMP-C2G cells is listed as “Neither DHT nor 5-HT appear to have much influence”. Also, the “cytotoxic response (cell viability)” value with DU145 clones DU6 and DU2 was “increased cytotoxic response”.

In the case of `C[C@]12CCC(=O)C[C@@H]1CC[C@@H]1[C@@H]2CC[C@]2(C)[C@@H](O)CC[C@@H]12` [DHT, 5α-dihydrotestosterone], the “influence on the effect of MBII-52 or SB 242,084 on cell viability” value in the series with TRAMP-C2G cells is on record as “Neither DHT nor 5-HT appear to have much influence”. The “MBII-52 expression increase caused by serum starvation” value in the series on MBII-52 is “almost completely block the increase in MBII-52; also recorded: abrogates the observed upregulation of MBII-52”.
